{"source": "patent US20220364139A1", "about": "“METHODS FOR DETERMINING GROWTH AND RESPONSE” (PATAIGIN, LLC, priority 2019, published 2022)", "test_system": "P. fluorescens strain that is susceptible to kanamycin", "assay": "Growth inhibition of P. fluorescens in 8% D2O, read from deuterated vs undeuterated membrane lipid ions by MALDI mass spectrometry", "assay_type": "cell-based, Pseudomonas fluorescens", "details": "range of antibiotic concentrations, FIG. 2", "method": "In FIG. 1 is shown eight MALDI mass spectra from about 680 to 730 m/z in negative ionization mode of membrane lipids extracted from a P. fluorescens strain that is susceptible to kanamycin. The aforementioned P. fluorescens strain was grown in seven environments containing Mueller-Hinton media and water containing 8% D2O, with each of the seven environments also having a concentration of kanamycin from 0 μg/mL to 200 μg/mL.\nExtract samples using the method of embodiment 1b, as follows: skip optional step 2 of embodiment 1b; perform step 3 of embodiment 1b by drying the plate at 80° C. for about 5 min; perform step 4 of embodiment 1b by applying 1 μL of a solution of chloroform-methanol-water at a ratio by volume of 12:6:1, to which 10 mg/mL of beta-carboline has been added.\n3. […]\nIn FIG. 1 can be seen multiple spectra for samples of a P. fluorescens strain that is susceptible to kanamycin, grown under different conditions, then extracted with a method of embodiment 1d and analyzed with a method of embodiment 2 using negative ionization mode. […]\nIn FIG. 2 can be seen a graph of the ratio of heavy/light LA ions from the spectra in FIG. 1, where light LA is measured as the intensity of the ion peak at 688.5 m/z and heavy LA is measured as the intensity of the ion peak at 692.5 m/z."}
{"smiles": "CC1(C)S[C@@H]2[C@H](NC(=O)C(C(=O)O)c3ccccc3)C(=O)N2[C@H]1C(=O)O", "note": "(stereo partly shown) [carbenicillin]", "values": [{"measurement": "relationship between heavy/light ratio and antibiotic concentration", "value": "lowest at the highest antibiotic concentrations"}]}
